US10364256B2 (GlaxoSmithKline Intellectual Property Development Limited, priority 2015, dated 2019)
Like-named read-outs stand apart in the source and are kept apart here.

What was measured:
[1] = molecular target: T1, full length Keap1 protein / full length NRF2 protein (Homo sapiens, UniProt Q14145); assay: NRF2-Keap1 TR-FRET Assay; format: binding; conditions: 25 nM Keap1-FlagHis and 50 nM biotin-NRF2 added
T1 construct: full length NRF2 protein and full length Keap1 protein (Keap1 exists a dimer) are used; His
Procedure, shortened: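 Full-length Keap1-FlagHis preincubated with compound 2.25 h at 37 °C, then biotin-NRF2 added for 1.25 h at 4 °C, in Tris pH 8.0 with MgCl2, NaCl, BSA, DTT, CHAPS. TR-FRET 665/615 nm ratio normalised to with- and without-protein 1% DMSO controls; pIC50 from four-parameter fit.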

[2] = test system: NQO1 specific enzyme activity in BEAS-2B cells (marker for NRF2 activation); assay: BEAS-2B NQO1 MTT Assay; format: cell-based; conditions: compound incubated 48 hours, read-out: EC50 (NQO1 specific enzyme activity induction)
Procedure, shortened: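 BEAS-2B cells treated with compound for 48 h at 37 °C, then lysed; NQO1 activity in lysates measured kinetically by MTT reduction at A570 over 30 min. pEC50 from 3-parameter fit of ΔOD/min versus log concentration; lysate also taken for Cell Titer Glo.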

T1 sequence (Q14145 whole entry): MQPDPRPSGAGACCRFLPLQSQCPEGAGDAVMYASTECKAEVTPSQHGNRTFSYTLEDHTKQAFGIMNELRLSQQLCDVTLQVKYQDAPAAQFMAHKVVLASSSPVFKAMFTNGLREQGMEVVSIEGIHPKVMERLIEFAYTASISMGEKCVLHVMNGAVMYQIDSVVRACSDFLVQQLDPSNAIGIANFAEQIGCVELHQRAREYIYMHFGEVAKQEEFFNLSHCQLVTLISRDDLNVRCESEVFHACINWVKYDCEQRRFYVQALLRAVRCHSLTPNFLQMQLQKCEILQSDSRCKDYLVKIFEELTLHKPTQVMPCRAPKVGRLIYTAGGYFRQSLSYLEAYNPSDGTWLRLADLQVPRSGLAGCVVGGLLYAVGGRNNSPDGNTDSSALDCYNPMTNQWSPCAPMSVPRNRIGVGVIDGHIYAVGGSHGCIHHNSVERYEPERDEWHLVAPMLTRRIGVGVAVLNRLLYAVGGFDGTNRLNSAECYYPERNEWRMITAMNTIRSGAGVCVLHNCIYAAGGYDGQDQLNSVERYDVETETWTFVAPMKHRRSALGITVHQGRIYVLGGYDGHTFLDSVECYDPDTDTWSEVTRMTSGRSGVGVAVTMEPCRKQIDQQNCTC

| Compound | IC50 [1] [nM] | EC50 ([2]; Homo sapiens) [nM] | EC50 [2] [nM] |
| --- | --- | --- | --- |
| CCC[C@@H]1CO[C@@H](C)CN1C(=O)c1cccc(-c2cccc(-n3ncc(C(=O)O)c3C3CC3)c2)c1F [Example 45, 5-cyclopropyl-1-(3-{2-fluoro-3-[(2S,5R)-2-methyl-5-propylmorpholine-4-carbonyl]phenyl}phenyl)-1H-pyrazole-4-carboxylic Acid] | 100 to 1000 | 100 to 1000 |  |
| CCCC1CCCCN1C(=O)c1cccc(-c2cccc(-n3ncc(C(=O)O)c3C3CC3)c2)c1F (stereo in doubt) [Example 54d, 5-Cyclopropyl-1-{3-[2-fluoro-3-((2R)-2-propylpiperidine-1-carbonyl)phenyl]phenyl}-1H-pyrazole-4-carboxylic Acid] | 1000 to 10000 | 100 to 1000 |  |
| O=C(O)c1cnn(-c2cccc(-c3cccc(C(=O)N4C5CCCC4CCC5)c3F)c2)c1C1CC1 [Example 34, 1-[3-(3-{9-azabicyclo[3.3.1]nonane-9-carbonyl}-2-fluorophenyl)phenyl]-5-cyclopropyl-1H-pyrazole-4-carboxylic Acid] | 100 to 1000 | 100 to 1000 |  |
| CC1CC(C)CN(C(=O)c2cccc(-c3cccc(-n4ncc(C(=O)O)c4[C@@H]4C[C@H]4c4cn(C)nn4)c3)c2F)C1 (mixture of isomers) [Example 263, 1-(3′-(3,5-Dimethylpiperidine-1-carbonyl)-2′-fluoro-[1,1′-biphenyl]-3-yl)-5-(2-(1-methyl-1H-1,2,3-triazol-4-yl)cyclopropyl)-1H-pyrazole-4-carboxylic Acid] | 10 to 100 | 100 to 1000 |  |
| O=C(O)c1cnn(-c2cccc(-c3cccc(C(=O)N(CC4CC4)CC4CC4)c3F)c2)c1C1CC1 [Example 8, 1-(3-{3-[Bis(cyclopropylmethyl)carbamoyl]-2-fluorophenyl}phenyl)-5-cyclopropyl-1H-pyrazole-4-carboxylic Acid] | 100 to 1000 | 100 to 1000 |  |
| CCOC[C@H]1CCCN1C(=O)c1cccc(-c2cccc(-n3ncc(C(=O)O)c3[C@@H]3C[C@H]3c3cn(C)nn3)c2)c1F [Example 268] | 10 to 100 | 100 to 1000 |  |
| O=C(O)c1cnn(-c2cccc(-c3cccc(C(=O)N4CCCC5CCCCC54)c3F)c2)c1C1CC1 (stereo not drawn) [Example 31, 5-Cyclopropyl-1-{3-[3-(decahydroquinoline-1-carbonyl)-2-fluorophenyl]phenyl}-1H-pyrazole-4-carboxylic Acid] | 1000 to 10000 | 100 to 1000 |  |
| CCC[C@@H]1CCCCN1C(=O)c1cccc(-c2cccc(-n3ncc(C(=O)O)c3C3CC3)c2)c1F [Example 54e, 5-Cyclopropyl-1-{3-[2-fluoro-3-((2-S)-2-propylpiperidine-1-carbonyl)phenyl]phenyl}-1H-pyrazole-4-carboxylic Acid] | 1000 to 10000 | 100 to 1000 |  |
| CC1CCC(C)N(C(=O)c2cccc(-c3cccc(-n4ncc(C(=O)O)c4C4CC4)c3)c2F)C1 (stereo not drawn) [Example 30, 5-Cyclopropyl-1-{3-[3-(2,5-dimethylpiperidine-1-carbonyl)-2-fluorophenyl]phenyl}-1H-pyrazole-4-carboxylic Acid] | 1000 to 10000 | 100 to 1000 |  |
| CC(C)CC1CCCCN1C(=O)c1cccc(-c2cccc(-n3ncc(C(=O)O)c3C3CC3)c2)c1F (stereo not drawn) [Example 28, 5-Cyclopropyl-1-(3-{2-fluoro-3-[2-(2-methylpropyl)piperidine-1-carbonyl]phenyl}phenyl)-1H-pyrazole-4-carboxylic Acid] | 100 to 1000 | 100 to 1000 |  |
| C[C@@H]1CN(Cc2cccc(-c3cccc(-n4ncc(C(=O)O)c4[C@@H]4C[C@H]4c4cn(C)nn4)c3)c2)Cc2ccccc2O1 [Example 253] | 100 to 1000 | 100 to 1000 |  |
| C[C@@H]1CCC[C@H](C)N1C(=O)c1cccc(-c2cccc(-n3ncc(C(=O)O)c3[C@@H]3C[C@H]3c3cn(C)nn3)c2)c1F (single isomer, unassigned) [Example 262] | 10 to 100 | 10 to 100 |  |
| COCC1CCCCN1C(=O)c1cccc(-c2cccc(-n3ncc(C(=O)O)c3C3C[C@H]3c3cn(C)nn3)c2)c1F (mixture of isomers) [Example 264, 1-(3′-(2-(Methoxymethyl)piperidine-1-carbonyl)-2′-fluoro-[1,1′-biphenyl]-3-yl)-5-(trans-2-(1-methyl-1H-1,2,3-triazol-4-yl)cyclopropyl)-1H-pyrazole-4-carboxylic Acid] | 10 to 100 | 100 to 1000 |  |
| CC(C)Oc1cccc(-c2cccc(-n3ncc(C(=O)O)c3C3CC3c3cn(C)nn3)c2)c1 (stereo not drawn) [Example 59, 1-(3′-Isopropoxy-[1,1′-biphenyl]-3-yl)-5-(2-(1-methyl-1H-1,2,3-triazol-4-yl)cyclopropyl)-1H-pyrazole-4-carboxylic Acid] | 100 to 1000 | 1000 to 10000 |  |
| O=C(O)c1cnn(-c2cccc(-c3cccc(C(=O)N4CCCC5(CCCC5)C4)c3F)c2)c1C1CC1 [Example 35, 1-[3-(3-{7-Azaspiro[4.5]decane-7-carbonyl}-2-fluorophenyl)phenyl]-5-cyclopropyl-1H-pyrazole-4-carboxylic Acid] | 100 to 1000 | 100 to 1000 |  |
| CC1CCCN(C(=O)c2cccc(-c3cccc(-n4ncc(C(=O)O)c4C4CC4)c3)c2F)CC1 (stereo not drawn) [Example 29, 5-Cyclopropyl-1-{3-[2-fluoro-3-(4-methylazepane-1-carbonyl)phenyl]phenyl}-1H-pyrazole-4-carboxylic Acid] | 100 to 1000 | 100 to 1000 |  |
| CC(C)CN(C)C(=O)c1cccc(-c2cccc(-n3ncc(C(=O)O)c3[C@@H]3C[C@H]3c3cn(C)nn3)c2)c1F (racemic) [Example 266, 1-(2′-Fluoro-3′(isobutyl(methyl)carbamoyl)-[1,1′-biphenyl]-3-yl)-5-(trans-2-(1-methyl-1H-1,2,3-triazol-4-yl)cyclopropyl)-1H-pyrazole-4-carboxylic Acid] | 10 to 100 | 100 to 1000 |  |
| Cn1cc([C@H]2C[C@@H]2c2c(C(=O)O)cnn2-c2cccc(-c3cccc(C(=O)N4CCCCCC4)c3F)c2)nn1 (racemic) [Example 260, 1-(2′-Fluoro-3′-(azepane-1-carbonyl)-[1,1′-biphenyl]-3-yl)-5-(trans-2-(1-methyl-1H-1,2,3-triazol-4-yl)cyclopropyl)-1H-pyrazole-4-carboxylic Acid] | 10 to 100 | 100 to 1000 |  |
| O=C(O)c1cnn(-c2cccc(-c3cccc(C(=O)N4CCCCC4CCC(F)(F)F)c3F)c2)c1C1CC1 (stereo not drawn) [Example 38, 5-Cyclopropyl-1-(3-{2-fluoro-3-[2-(3,3,3-trifluoropropyl)piperidine-1-carbonyl]phenyl}phenyl)-1H-pyrazole-4-carboxylic Acid] | 100 to 1000 | 100 to 1000 |  |
| Cn1cc([C@@H]2C[C@H]2c2c(C(=O)O)cnn2-c2cccc(-c3cccc(-n4ncc5c4C(C)(C)CC5)c3)n2)nn1 (racemic) [Example 251, 1-(6-(3-(6,6-Dimethyl-5,6-dihydrocyclopenta[c]pyrazol-1(4H)-yl)phenyl)pyridin-2-yl)-5-(trans-2-(1-methyl-1H-1,2,3-triazol-4-yl)cyclopropyl)-1H-pyrazole-4-carboxylic Acid] | 10 to 100 | 100 to 1000 |  |
| O=C(O)c1cnn(-c2cccc(-c3cccc(C(=O)N4CCCCC4C4CCCC4)c3F)c2)c1C1CC1 (stereo not drawn) [Example 33, 1-{3-[3-(2-Cyclopentylpiperidine-1-carbonyl)-2-fluorophenyl]phenyl}-5-cyclopropyl-1H-pyrazole-4-carboxylic Acid] | 100 to 1000 | 100 to 1000 |  |
| 1-(3′-((2-chlorocyclohexyl)methoxy)-[1,1′-biphenyl]-3-yl)-5-((1,2-trans)-2-(1-methyl-1H-1,2,3-triazol-4-yl)cyclopropyl)-1H-pyrazole-4-carboxylic acid [Example 186] | 100 to 1000 |  | 10 to 100 |
| CC1CC(C)CN(C(=O)c2cccc(-c3cccc(-n4ncc(C(=O)O)c4C4CC4)c3)c2F)C1 (stereo not drawn) [Example 53, 5-Cyclopropyl-1-[3′-(3,5-dimethyl-piperidine-1-carbonyl)-2′-fluoro-biphenyl-3-yl]-1H-pyrazole-4-carboxylic Acid] | 100 to 1000 | 100 to 1000 |  |
| C[C@@H]1CCC[C@H](C)N1C(=O)c1cccc(-c2cccc(-n3ncc(C(=O)O)c3[C@H]3C[C@@H]3c3cn(C)nn3)c2)c1F (single isomer, unassigned) [Example 261] | 10 to 100 | 10 to 100 |  |
| CC1(C)CCc2cnn(-c3cccc(-c4cccc(-n5ncc(C(=O)O)c5C(F)(F)F)c4)c3)c21 [Example 250, 1-(3′-(6,6-Dimethyl-5,6-dihydrocyclopenta[c]pyrazol-1(4H)-yl)-[1,1′-biphenyl]-3-yl)-5-(trifluoromethyl)-1H-pyrazole-4-carboxylic Acid] | 10000 to 100000 | 100 to 1000 |  |
| CC1(C)CCc2cnn(-c3cccc(-c4cccc(-n5ncc(C(=O)O)c5C5CC5)c4)c3)c21 [Example 63, 5-Cyclopropyl-1-(3′-(6,6-dimethyl-5,6-dihydrocyclopenta[c]pyrazol-1(4H)-yl)-[1,1′-biphenyl]-3-yl)-1H-pyrazole-4-carboxylic Acid] | 100 to 1000 | 100 to 1000 |  |
| Cn1cc([C@@H]2C[C@H]2c2c(C(=O)O)cnn2-c2cccc(-c3cccc(CN4Cc5ccccc5OC(C)(C)C4)c3)c2)nn1 (racemic) [Example 254, 1-(3′-((2,2-Dimethyl-2,3-dihydrobenzo[f][1,4]oxazepin-4(5H)-yl)methyl)-[1,1′-biphenyl]-3-yl)-5-(trans-2-(1-methyl-1H-1,2,3-triazol-4-yl)cyclopropyl)-1H-pyrazole-4-carboxylic Acid] | 100 to 1000 | 100 to 1000 |  |
